Patent EP1464336A1, “Use of tryprostatin A for the reversal of cancer drug resistance” (Humboldt-Universität zu Berlin, priority 2003, dated 2004)

Tests used:
[1] = test system: drug-sensitive and drug-resistant gastric and breast cancer cell lines; assay: Cytotoxicity of the MDR modulators alone (SRB proliferation assay); format: cell-based, human
Protocol: (§1) Modulation of chemoresistance was tested using a proliferation assay based on sulforhodamine B (SRB), a protein-binding reagent (Skehan P et al., J Natl Cancer Inst 1990;82:1107-12), as described in Lage H et al., Int J Hyperthermia 2000;16:291-303; Lage H et al., FEBS Lett 2001;503:179-84; Lage H et al., FEBS Lett 2001;494:54-9. In each experiment, 350 cells per well were seeded in the presence or absence of TPS-A in 96-well plates in complete medium and allowed to attach overnight. Mitoxantrone or daunorubicin were added in a dilution series in triplicate wells. After 5 days, when unselected wells were still subconfluent, incubation was terminated by replacing the medium with 10 % trichloroacetic acid, followed by incubation at 4 °C for 1 h. After samples were washed 5 times with water and air-dried, 50 µl 0.4 % SRB (Sigma, St. Louis, MO) in 1 % acetic acid was added and samples were incubated for 10 min at room temperature. Unbound dye was eliminated by washing the plates 5 times with 1 % acetic acid. After air-drying and re-solubilisation of the protein-bound dye in 10 mM Tris-HCl (pH 8.0), absorbance was quantified at 562.5 nm. To determine the IC50-value, the absorbance difference of control cells without drug was set to be 100 %. Linear regression of data was done for the linear part of the curve, and IC50-values were calculated from multiple, at least three independent experiments for each cell line.
The cytotoxicity of the MDR modulators TPS-A and GF120918 on drug-sensitive and drug-resistant gastric and breast cancer cell lines was initially assessed.

[2] = test system: parental, drug-sensitive gastric carcinoma cell variant EPG85-257P; assay: Mitoxantrone accumulation assay (flow cytometry); format: cell-based, human; conditions: GF120918 (Fig 4)
Protocol: (§2) Cellular mitoxantrone accumulation was determined according to the procedure described in Lage H et al., FEBS Lett 2001;503:179-84. Briefly, 4 x 10^5 cells were seeded out in 6-well plates 78 hours prior to the experiment. Incubation with mitoxantrone (0, 1,5 and 10 µg/ml) was performed for 60 minutes at 37°C and 70-80 % cellular confluence. For kinetics of intracellular enrichment of mitoxantrone, cells were exposed to 10 µg/ml mitoxantrone for 0, 5, 10 and 60 min. Cells were washed with ice-cold PBS, trypsinized and resuspended in 4 °C PBS at a concentration of 4 x 10^5 cells/ml. Intracellular fluorescence of mitoxantrone was determined by flow cytometry (Becton-Dickinson, San Jose, CA). The cells were excited at 480 nm and emission was measured at 630 nm. A minimum of 10^4 cells was analyzed for each sample. All assays were performed at least in three independent experiments, each time with triplicate wells.
(§3) To provide confirmation that the observed resensitization to mitoxantrone of BCRP-overexpressing cells was indeed the result of BCRP inhibition by TPS-A, a mitoxantrone accumulation assay was performed. The known so-called "multispecific" MDR modulator GF120918, inhibiting P-gp- and BCRP activity, was used as a positive control for P-gp- and BCRP antagonism.

P-gp [3] = assay: Mitoxantrone accumulation assay (flow cytometry); format: cell-based, human; conditions: human, EPG85-257RDB cells (P-gp-expressing, classical MDR variant), probe mitoxantrone; 1 µM GF120918 (Fig 4); read-out: inhibition of mitoxantrone pump activity
Protocol: as §2, §3

MCF-7/AdrVp = assay: Mitoxantrone accumulation assay (flow cytometry); format: cell-based, human; conditions: 1 µM GF120918
Protocol: as §2, §3

[4] = test system: BCRP-transfected cell variant MCF-7/BCRP clone 8; assay: Mitoxantrone accumulation assay (flow cytometry); format: cell-based, human; conditions: 1 µM GF120918; compared to drug accumulation level in the untreated, parental control cell line (Fig 4B)
Protocol: as §2, §3

[5] = test system: drug-sensitive, parental cell line MCF-7; assay: Mitoxantrone accumulation assay (flow cytometry); format: cell-based, human; conditions: increasing modulator concentrations
Protocol: as §2, §3

BCRP = assay: Mitoxantrone accumulation assay (flow cytometry); format: cell-based, human; conditions: human, probe mitoxantrone; 1 µM GF120918 (Fig 4); read-out: mitoxantrone accumulation inhibiting effect
Protocol: as §2, §3

P-gp [6] = target: P-gp (Homo sapiens, UniProt P08183); conditions: literature (Hyafil F et al., Cancer Res 1993); cited from earlier work
Chain of P-gp (Homo sapiens, UniProt P08183) (P08183 whole entry): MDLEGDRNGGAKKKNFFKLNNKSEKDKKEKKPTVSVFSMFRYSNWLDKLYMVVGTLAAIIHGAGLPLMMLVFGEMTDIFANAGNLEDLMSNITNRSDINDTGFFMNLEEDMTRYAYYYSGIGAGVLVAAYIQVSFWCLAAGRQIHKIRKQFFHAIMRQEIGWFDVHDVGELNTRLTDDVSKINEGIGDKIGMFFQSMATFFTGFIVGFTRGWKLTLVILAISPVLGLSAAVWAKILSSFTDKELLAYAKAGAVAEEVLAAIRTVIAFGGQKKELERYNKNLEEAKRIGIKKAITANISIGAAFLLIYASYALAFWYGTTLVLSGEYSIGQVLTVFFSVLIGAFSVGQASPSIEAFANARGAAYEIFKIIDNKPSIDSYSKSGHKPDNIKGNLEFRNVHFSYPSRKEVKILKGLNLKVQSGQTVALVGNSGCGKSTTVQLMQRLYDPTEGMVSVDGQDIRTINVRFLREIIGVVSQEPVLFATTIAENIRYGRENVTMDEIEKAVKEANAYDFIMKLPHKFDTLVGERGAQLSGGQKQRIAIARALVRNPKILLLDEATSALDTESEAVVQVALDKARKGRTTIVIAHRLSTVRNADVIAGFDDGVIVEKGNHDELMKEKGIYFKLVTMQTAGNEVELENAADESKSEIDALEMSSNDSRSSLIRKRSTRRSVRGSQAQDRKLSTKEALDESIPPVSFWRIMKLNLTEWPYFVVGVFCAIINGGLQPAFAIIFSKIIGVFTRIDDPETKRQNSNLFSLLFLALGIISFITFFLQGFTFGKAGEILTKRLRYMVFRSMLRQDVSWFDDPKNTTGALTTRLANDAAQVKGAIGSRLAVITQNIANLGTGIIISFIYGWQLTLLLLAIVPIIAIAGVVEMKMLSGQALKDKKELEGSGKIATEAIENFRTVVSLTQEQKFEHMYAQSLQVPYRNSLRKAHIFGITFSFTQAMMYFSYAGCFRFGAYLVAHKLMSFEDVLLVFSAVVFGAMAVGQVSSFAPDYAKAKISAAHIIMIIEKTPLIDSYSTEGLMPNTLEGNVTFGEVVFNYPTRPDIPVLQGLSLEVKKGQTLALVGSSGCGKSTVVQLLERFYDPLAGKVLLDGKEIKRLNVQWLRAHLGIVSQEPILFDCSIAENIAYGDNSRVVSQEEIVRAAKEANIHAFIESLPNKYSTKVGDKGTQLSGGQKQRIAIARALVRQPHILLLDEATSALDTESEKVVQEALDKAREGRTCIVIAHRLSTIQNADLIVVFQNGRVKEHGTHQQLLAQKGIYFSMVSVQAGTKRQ

[7] = test system: gastric and breast carcinoma cell variants; assay: Modulation of chemoresistance to mitoxantrone or daunorubicin (SRB proliferation assay, IC50/DMF); format: cell-based, human
Protocol: as §1
The cellular sensitivity to mitoxantrone and daunorubicin was assessed by determining the IC50 values without or with increasing concentrations of TPS-A or GF120918 as a positive control in the different cancer cell variants. Table 1 presents the data of TPS-A reversal of mitoxantrone and daunorubicin resistance in different gastric and breast carcinoma cell variants, respectively. […] In each case, the equation DMF=(IC50 (-CS))/(IC50 (+CS)) [formula] was used to calculate the dose modifying factor (DMF), comparing the IC50 values in the presence (+CS) or absence (-CS) of the corresponding chemosensitizer (CS) TPS-A or GF120918.

EPG85-257RDB cells = assay: Modulation of chemoresistance to daunorubicin (SRB proliferation assay, IC50/DMF); format: cell-based, human; conditions: GF120918; classical MDR, P-gp-expressing cells (Table 2, Figure 3B)
Protocol: as §1, with “After samples were washed 5 times with water and air-dried, 50 µl 0.4 % SRB (Sigma, St. Louis, MO) in 1 % acetic acid was added and samples were incubated for 10 min at room temperature. Unbound dye was eliminated by washing the plates 5 times with 1 % acetic acid.” left out, “To determine the IC50-value, the absorbance difference of control cells without drug was set to be 100 %.” left out
The cellular sensitivity to mitoxantrone and daunorubicin was assessed by determining the IC50 values without or with increasing concentrations of TPS-A or GF120918 as a positive control in the different cancer cell variants. […]

[8] = test system: MDR1 Pgp overexpressing subline (EPG85-257RDB); assay: C6-NBD-PS outward translocation assay; format: cell-based, human; conditions: 10 µM inhibitor; 30 minutes at 37°C (Fig. 8)
Protocol: (§4) To measure redistribution of C6-NBD-PS from the cytoplasmic to the exoplasmic leaflet, labelling of the cytoplasmic leaflet is preconditional. Previously, we have introduced a method to achieve efficient labeling of the plasma membrane inner leaflet of the gastric carcinoma cell line EPG85-257 (Pohl, A., Lage, H., Müller, P., Pomorksi, T., and Herrmann. A. (2002) Biochem. J. 365, 259-268). Briefly, cells were preincubated with or without MDR inhibitors, labelled with 5 µM C6-NBD-PS, and incubated at 20°C for 30 minutes to allow inward movement of the NBD analogue. C6-NBD-PS remaining on the cell surface was extracted twice by incubation with 2% (w/v) BSA in mPBS for 10 minutes on ice. Before starting the outward translocation assay, the medium was removed, and cells were washed with ice-cold mPBS. For t=0', ice-cold medium containing 2% (w/v) BSA and 5 mM DFP ( = diisopropyl fluoro-phosphate) in mPBS with or without inhibitor was immediately added to the cell dish for 10 minutes. To measure C6-NBD-PS outward translocation, medium prewarmed to 37°C was added to the dish, and cells were incubated at 37°C for 30 minutes (t = 30'). Removal of the BSA-containing media and a second extraction with 2% BSA in mPBS for 10 minutes terminated incubations, followed by lipid analysis.
(§5) After the incubations, the second BSA back exchange medium was pooled with the first, and cells scraped into mPBS. For analysis of outward translocation and of metabolic conversion of C6-NBD-PS, lipids from both scraped cells and media were extracted with isopropanol/chloroform/(5.5:1, v/v) to prevent substantial loss into the aqueous phase. Samples were centrifuged at 780 g for 5 minutes, the supernatant transferred into new glass tubes and dried, dissolved in chloroform/methanol (1:1) and quantified spectroscopically. For C6-NBD-PC analysis, lipids from both cells and incubation media were extracted by the method of Bligh and Dyer (Bligh, E., and Dyer, W. (1959) Can. J Biochem. Physiol. 37, 911-917) using 20 mM acetic acid in the aqueous phase. After 2-D separation [I, chloroform/methanol/25% ammonium hydroxide (65:25:4, v/v); II, chloroform/acetone/methanol/acetic acid/water (10:4:2:2:1, v/v)] on thin layer chromatography plates, fluorescent lipid spots were visualized under ultraviolet light, scraped, and quantified as described before (Pomorski, T., Müller, P., Zimmermann, B., Burger, K., Devaux, P., and Herrmann, A. (1996) J. Cell Sci. 109, 687-698).

[9] = test system: BCRP overexpressing cells (EPG85-257RNOV); assay: C6-NBD-PS outward translocation assay; format: cell-based, human; conditions: pretreatment with 10 µM inhibitor; 30 minutes at 37°C (Fig. 8)
Protocol: as §4, §5

[10] = test system: control cells (EPG85-257P); assay: C6-NBD-PS outward translocation assay; format: cell-based, human; conditions: 10 µM inhibitor; 30 minutes at 37°C (Fig. 8)
Protocol: as §4, §5

COc1cc2c(cc1OC)CN(CCc1ccc(NC(=O)c3cccc4c(=O)c5cccc(OC)c5[nH]c34)cc1)CC2 [GF120918, reference compound]
growth inhibitory effect ([1]; 1 µM GF120918 alone, any of the drug-sensitive or drug-resistant cancer cell lines tested): no growth inhibitory effect | cross-resistance to the MDR modulator ([1]; multidrug-resistant tumor cell lines): No evidence of cross-resistance | transporter inhibiting effect (mitoxantrone accumulation) [2]: very weak transporter inhibiting effect | inhibition at 1 µM (P-gp [3]): 75% | increase of drug accumulation with respect to control cells (MCF-7/AdrVp): 40% | inhibition of the mitoxantrone pump activity [4]: completely | effect on drug accumulation [5]: only a weak dosage-depending effect | inhibition at 1 µM (BCRP): 80% | concentration capable of restoring drug sensitivity (as low as) (P-gp [6]): 100 nM | restoration of drug sensitivity (mitoxantrone resistance) ([7]; 1 µM GF120918, EPG85-257RNOV and EPG85-257RDB, same for MCF7/BCRP clone 8 and MCF-7/AdrVp): not sufficient to restore drug sensitivity completely | resensitization to mitoxantrone ([7]; GF120918, BCRP- and P-gp-expressing stomach and mamma carcinoma-derived cell lines (Table 2, Figure 3A)): dose-depending resensitization | effect on sensitivity to daunorubicin ([7]; GF120918, the other human gastric and breast cancer cell lines (not EPG85-257RDB)): no significant effect | sensitization to daunorubicin (EPG85-257RDB cells): considerable dose-depending sensitization | PS analogue outward translocation (MDR1 Pgp lipid transport activity) [8]: significant reduction | amount of C6-NBD-PS in the BSA containing medium (outward translocation) [9]: sharp and highly significant decrease | PS transport (C6-NBD-PS outward translocation) [10]: did not affect PS transport significantly
